In patent publication US11046651B2, “Piperazine substituted azapine derivatives and uses thereof” (Alairion, Inc., priority 2019, dated 2021):

Experiments:
H1 = H1 (Homo sapiens (Human), UniProt P35367); test: H1 binding assay ([3H]pyrilamine, HEK293 stable cell line membranes); conditions: Table E, class symbols
Description: Example 25. H1 and 5-HT2A Binding Assay Protocol
The testing compounds were diluted with DMSO, starting at 2 mM, with 8-points and 5-fold serial dilutions. Ketanserin and Pyrilamine were diluted with DMSO, starting at 0.2 mM, with 8-points and 5-fold serial dilution.
1 μl of a compounds of the present disclosure and either reference compound (Table C) were transferred to assay plates. 1 μl of 0.2 mM Ketanserin or Pyrilamine was transferred to an assay plate according to the plate map for nonspecific binding (Low control: LC). 1 μl of DMSO was transferred to an assay plate according to plate map for total binding (High control: HC).
100 μlof membrane stocks were dispensed into the plates, following the plate map. 100 of radio ligand was added. The plates were sealed and shaken at 300 rpm at room temperature for 1 hour. The Unifilter-96 GF/C filter plates were soaked with 50 of 0.3% PEI per well for at least 0.5 hour at room temperature.
(§1) When the binding assays were complete, the reaction mixture was filtered through GF/C plates using Perkin Elmer Filtermate Harvester, and then each plate was washed 4 times with cold wash buffer. The filter plates were dried for 1 hour at 50 degrees. After drying, the bottom of the filter plate wells were sealed using Perkin Elmer Unifilter-96 backing seal tape. 50 μl of Perkin Elmer Microscint 20 cocktail was added. The top of the filter plates were sealed with Perkin Elmer TopSeal-A sealing film.
^3H trapped on filters were counted using Perkin Elmer MicroBeta2 Reader. Inhibition constants were calculated using the following equation:
[formula] The data was analyzed using Prism 5. The model used was “log(inhibitor) vs. response—Variable slope” to fit the data and calculate IC50. The IC50 was then converted to Ki using following equation: Ki=IC50/(1+L/Kd). L is the radioligand concentration in the reaction system; Kd is the affinity of radioligand to the receptor.

D2 = D2 (Homo sapiens (Human), UniProt P14416); test: D2 binding assay ([3H] 7-OH-DPAT, HEK293 D2L membranes); conditions: numeric values
Description: D2 Binding Assay Protocol
The testing compounds were diluted with DMSO, starting at 2 mM, with 8-points and 5-fold serial dilutions. droperidol was diluted with DMSO, starting at 0.2 mM, with 8-points and 4-fold serial dilutions.
1 μL of a compound of the present disclosure and the reference compound (Table O) was transferred to an assay plate. 1 μL of droperidol was transferred to an assay plate according to the plate map for nonspecific binding (Low control: LC). 1 μL of DMSO was transferred to an assay plate according to the plate map for total binding (High control: HC). Following a plate map, 100 μL of the membrane stock solutions and radio ligand were added into the plate. The plates were sealed and shaken with 300 rpm.
as §1, with “Unifilter-96 GF/C filter plates were soaked with 50 μL of 0.3% PEI per well for about 0.5 hours at room temperature. When” for “When”, “the GF/B filter” for “GF/C”, “and” for “and then”, “50° C.” for “50 degrees.”, “μL” for “μl”
^3H trapped on filters were counted using Perkin Elmer MicroBeta2 Reader. Inhibition constants were calculated using the following equation: […]
The data was analyzed using Prism 5. The model used was “log(inhibitor) vs. response—Variable slope” to fit the data and calculate IC50. The IC50 was then converted to Ki using the following equation: Ki=IC50/(1+L/Kd), wherein L is the radioligand concentration in the reaction system; Kd is the affinity of radioligand to the receptor. As shown in Table Q Compound No. 7 has a lower affinity for D2 when compared to Compounds A-2, A-3, A-4, and A-5.

male Wistar rats = test: SCORE EEG/EMG sleep-wake monitoring: sleep continuity, number of arousals, depth of sleep; assay type: in vivo, rat; conditions: 30 mg/kg PO
Description: Example 30. Experimental Details and Methods for Determining Sleep Continuity, Number of Arousals, and Depth of Sleep
Treatment detail plots (see, e.g., FIGS. 1-10) depict pre- and post-treatment time series plot ±30 hours before and after treatment at CT-18 (6-hours after lights-off) or pre- and post-treatment time series plots 29 hr before and 31 hr after treatments at CT-5 (5-hours after lights-on). Treatment occurred at the beginning of the hour marked by a triangle on the abscissa of the plot. Variables were computed in hourly bins.
All data were plotted as group mean±SEM (see, e.g., FIGS. 1-10). The gray shaded area encompasses the vehicle treatment mean±SEM. Along the x-axis, time of treatment is marked by a triangle unless noted otherwise. Along the x-axis, light/dark bars indicate lights on/off.
Adult, male Wistar rats (approximately 270 g at time of surgery, Charles River Laboratories) were administered dexmedetomidine 25 μg/kg and anesthetized (2% isoflourane in 95/5 oxygen, to effect) and surgically prepared with a cranial implant that permitted chronic electro-encephalogram (EEG) and electromyogram (EMG) recording. Body temperature and locomotor activity were monitored via a miniature transmitter (Minimitter Series PDT4000 E-Mitter, Bend, Oreg.) surgically placed in the abdomen during the same anesthetic event when the cranial portion was implanted. The cranial implant consisted of miniature stainless steel screws (2 frontal [+3.9 AP from bregma, 2.0 ML], 2 occipital [−6.4 AP, 5.5 ML], and 1 ground placed sagittaly and posterior to lambda) for EEG recording. Two Teflon-coated multi-strand stainless steel wires were positioned under the nuchal trapezoid muscles for EMG recording. All leads were soldered to a miniature connector (Omnetics, Minneapolis, Minn.) and gas sterilized with ethylene oxide prior to surgery. The implant assembly was affixed to the skull by the combination of the EEG recording screws, cyanoacrylate applied between the hermetically sealed implant connector and skull, and a UV-curing dental acrylic. An analgesic (meloxicam 1 mg/kg IP) was administered 1 day prior to surgery and daily for 2 days post-surgery. Neosporin with lidocaine was applied topically to the peri-implant margin. At least three weeks were allowed for surgical recovery prior to any data collection.
Rats were housed individually within specially modified Innovive® cages equipped with a custom-built ultra-low-torque slip-ring commutator and a customized Innovive® polycarbonate cage-top. These cages were located on shelves of a modified stainless steel animal rack that was pre-wired for physiological and behavioral data collection. Food and water were available ad libitum and the ambient temperature was 22±1° C. A 24-hr light-dark cycle (LD 12:12) was maintained throughout the study using LED lighting strips. Light intensity averaged 35 lux at mid-level inside the cage. Relative humidity averaged 50% approximately. Animals were undisturbed for two days before and after each treatment.
Sleep and wakefulness were determined using SCORE™—a Linux and Windows-10 real-time computer-based sleep-wake and physiological monitoring system. Validation of the SCORE™ sleep stage identification algorithm in rodents and the system's utility in pre-clinical drug discovery and evaluation have been previously described (Edgar et al. Psychopharmacology 1991, 105, 374; Gilmour et al., Neuropharmacology 2012, 64, 224; McCarthy et al., 2016, Neuropharmacology 108, 415; Olive et al., J. Pharmacology &Experimental Therapeutics 1998 285, 1073; Phillips et al, Neuropharmacology 2012, 62, 1359; Seidel et al. J Pharmacology &Experimental Therapeutics 1995, 275, 263; Van Gelder et al. Sleep 1991, 14, 48). […]

H1, sequence (P35367 whole entry): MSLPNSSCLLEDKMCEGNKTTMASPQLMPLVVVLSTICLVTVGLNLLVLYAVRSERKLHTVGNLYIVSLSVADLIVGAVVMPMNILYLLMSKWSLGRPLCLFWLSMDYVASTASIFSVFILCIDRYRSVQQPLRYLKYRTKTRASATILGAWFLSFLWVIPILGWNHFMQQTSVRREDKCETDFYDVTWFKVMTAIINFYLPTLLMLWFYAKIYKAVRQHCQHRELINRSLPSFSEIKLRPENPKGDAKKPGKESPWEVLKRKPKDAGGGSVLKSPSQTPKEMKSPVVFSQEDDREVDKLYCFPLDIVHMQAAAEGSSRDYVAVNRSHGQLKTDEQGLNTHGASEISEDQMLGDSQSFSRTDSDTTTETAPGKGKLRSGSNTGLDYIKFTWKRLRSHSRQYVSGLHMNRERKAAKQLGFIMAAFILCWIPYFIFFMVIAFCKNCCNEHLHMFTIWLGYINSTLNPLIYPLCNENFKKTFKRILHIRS
D2, sequence (P14416 whole entry): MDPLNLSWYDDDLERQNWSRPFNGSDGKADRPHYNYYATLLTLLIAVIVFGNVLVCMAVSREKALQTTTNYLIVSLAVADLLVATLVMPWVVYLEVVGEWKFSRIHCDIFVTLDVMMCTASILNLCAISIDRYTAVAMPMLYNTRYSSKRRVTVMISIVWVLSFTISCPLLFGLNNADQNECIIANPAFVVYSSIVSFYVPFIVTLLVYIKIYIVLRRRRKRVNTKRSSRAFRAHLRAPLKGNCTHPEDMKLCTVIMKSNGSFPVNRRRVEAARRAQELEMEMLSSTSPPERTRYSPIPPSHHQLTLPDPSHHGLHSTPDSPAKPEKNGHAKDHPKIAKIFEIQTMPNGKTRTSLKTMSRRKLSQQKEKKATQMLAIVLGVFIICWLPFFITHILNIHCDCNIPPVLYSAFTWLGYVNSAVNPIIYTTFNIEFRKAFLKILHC

How did the Ki (H1) turn out when `Cc1ccc2c(c1)Oc1cc(C)ccc1C(N1CCN(CC(C)(C)C(=O)O)CC1)=N2` [Compound No. 7, 3-(4-(3,7-dimethyldibenzo[b,f][1,4]oxazepin-11-yl)piperazin-1-yl)-2,2-dimethylpropanoic acid] was run?
The Ki was over 0.05 µM.

And the Ki (D2)?
Its Ki is over 50 µM.

And the “reductions in the number of transitions from sleep to wake per hour relative to controls” value (male Wistar rats; CT-5, male Wistar rats)?
Its value is 40-50%.

And the “increase in sleep bout-length per hour relative to vehicle control” value (male Wistar rats; CT-18, male Wistar rats)?
Its value is 3-4 fold.

And the “normalized EEG delta power (slow wave activity) during nonREM sleep” value (male Wistar rats; CT-18, male Wistar rats)?
The value was “increases in EEG slow wave activity in nonREM sleep”.
